# In patent US20120264735A1 (priority 2009, published 2012):
# Target: T1, c-Met kinase (recombinant c-Met) (Homo sapiens, UniProt P08581)
# T1 construct: 0.27 nM recombinant c-Met
# Test: In vitro kinase assay I (homogeneous time-resolved fluorescence tyrosine kinase assay)
# Format: biochemical
# Summary of the method: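 Biotinylated peptide (0.5 μM) phosphorylated by 0.2 nM recombinant c-Met with 50 μM MgATP, 60 min at room temperature, pH 7.4, 5% DMSO. EDTA stop; HTRF read with Eu-anti-phosphotyrosine antibody and streptavidin-APC. IC50 from 4-parameter logistic fit.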
# T1 sequence (P08581 25-1390): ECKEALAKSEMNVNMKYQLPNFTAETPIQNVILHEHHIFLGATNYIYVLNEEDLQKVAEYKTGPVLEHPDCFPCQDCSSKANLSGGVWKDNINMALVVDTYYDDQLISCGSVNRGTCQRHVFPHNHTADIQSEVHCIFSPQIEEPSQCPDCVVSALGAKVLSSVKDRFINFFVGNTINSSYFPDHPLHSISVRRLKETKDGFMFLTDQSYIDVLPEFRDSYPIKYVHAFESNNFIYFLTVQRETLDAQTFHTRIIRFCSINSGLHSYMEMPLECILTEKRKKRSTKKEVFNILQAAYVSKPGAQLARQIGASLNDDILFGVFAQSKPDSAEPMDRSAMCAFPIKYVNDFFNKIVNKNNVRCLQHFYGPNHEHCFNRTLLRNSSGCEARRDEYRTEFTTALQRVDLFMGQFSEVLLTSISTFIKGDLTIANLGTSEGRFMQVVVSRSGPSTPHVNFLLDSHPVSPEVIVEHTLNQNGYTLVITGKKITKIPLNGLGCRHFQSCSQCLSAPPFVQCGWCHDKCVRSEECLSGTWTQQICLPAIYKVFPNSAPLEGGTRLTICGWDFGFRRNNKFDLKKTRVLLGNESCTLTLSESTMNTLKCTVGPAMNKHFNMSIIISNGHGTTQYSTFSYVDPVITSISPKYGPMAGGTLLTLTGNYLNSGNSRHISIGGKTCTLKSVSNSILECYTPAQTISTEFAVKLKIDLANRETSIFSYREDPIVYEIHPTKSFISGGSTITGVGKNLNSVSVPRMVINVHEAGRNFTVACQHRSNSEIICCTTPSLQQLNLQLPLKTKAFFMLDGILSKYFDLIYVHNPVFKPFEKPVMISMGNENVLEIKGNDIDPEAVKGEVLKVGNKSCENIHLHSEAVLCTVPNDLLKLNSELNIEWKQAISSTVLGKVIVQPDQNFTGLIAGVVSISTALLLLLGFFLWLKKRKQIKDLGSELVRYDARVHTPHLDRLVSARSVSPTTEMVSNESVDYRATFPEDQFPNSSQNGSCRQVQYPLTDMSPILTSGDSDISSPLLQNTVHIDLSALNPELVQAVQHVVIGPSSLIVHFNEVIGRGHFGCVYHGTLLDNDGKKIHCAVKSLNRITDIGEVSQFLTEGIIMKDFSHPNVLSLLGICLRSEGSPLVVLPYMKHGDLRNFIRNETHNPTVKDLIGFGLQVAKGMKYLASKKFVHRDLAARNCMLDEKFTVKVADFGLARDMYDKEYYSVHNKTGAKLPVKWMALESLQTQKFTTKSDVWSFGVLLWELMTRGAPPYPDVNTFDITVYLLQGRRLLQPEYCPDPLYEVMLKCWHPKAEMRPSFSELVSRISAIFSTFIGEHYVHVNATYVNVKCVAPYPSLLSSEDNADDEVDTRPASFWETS
row,IC50 [nM],SMILES
1,100 to 1000,"CCOc1cnc(-c2cccc(Cc3nn(-c4cnn(C)c4)ccc3=O)c2F)nc1 [Example 121, 3-[3-(5-ethoxypyrimidin-2-yl)-2-fluorobenzyl]-1-(1-methyl-1H-pyrazol-4-yl)pyridazin-4(1H)-one]"
2,< 100,"CCCn1cnc(-c2cccc(Cc3nn(-c4cnn(CC)c4)ccc3=O)c2)n1 [Example 87, 1-(1-ethyl-1H-pyrazol-4-yl)-3-[3-(1-propyl-1H-1,2,4-triazol-3-yl)benzyl]pyridazin-4(1H)-one]"
3,< 100,"COc1cnc(-c2cccc(Cc3nn(-c4cncc(C#N)c4)ccc3=O)c2)nc1 [Example 733, 5-{3-[3-(5-Methoxypyrimidin-2-yl)benzyl]-4-oxopyridazin-1(4h)-yl}pyridine-3-carbonitrile]"
4,< 100,"Cn1cc(-n2ccc(=O)c(Cc3cccc(-c4ncc(N5CCC(O)CC5)cn4)c3)n2)cn1 [Example 442, 3-{3-[5-(4-hydroxypiperidin-1-yl)pyrimidin-2-yl]benzyl}-1-(1-methyl-1H-pyrazol-4-yl)pyridazin-4(1H)-one]"
5,100 to 1000,"CNCc1cnc(-c2cccc(Cc3nn(-c4cnn(C)c4)ccc3=O)c2)nc1 [Example 427, 3-(3-{5-[(methylamino)methyl]pyrimidin-2-yl}benzyl)-1-(1-methyl-1H-pyrazol-4-yl)pyridazin-4(1H)-one]"
6,< 100,"CCCC(c1cccc(-c2ncc(OCC)cn2)c1)c1nn(-c2cnn(C)c2)ccc1=O (single isomer, unassigned) [Example 208, 3-{(1R or S)-1-[3-(5-ethoxypyrimidin-2-yl)phenyl]butyl}-1-(1-methyl-1H-pyrazol-4-yl)pyridazin-4(1H)-one]"
7,< 100,"COc1cnc(-c2cccc(Cc3nn(-c4ccc(OC)nc4)ccc3=O)c2)nc1 [Example 33, 1-(6-methoxypyridin-3-yl)-3-[3-(5-methoxypyrimidin-2-yl)benzyl]pyridazin-4(1H)-one]"
8,< 100,"CCn1cc(-n2ccc(=O)c(Cc3cccc(-c4ncc(OCC5(C)COC5)cn4)c3)n2)cn1 [Example 316, 1-(1-ethyl-1H-pyrazol-4-yl)-3-(3-{5-[(3-methyloxetan-3-yl)methoxy]pyrimidin-2-yl}benzyl)pyridazin-4(1H)-one]"
9,1000 to 3000,"Cc1cnc(-c2cccc(Cc3nn(-c4cnn(C)c4)ccc3=O)c2)[nH]1 [Example 672, 3-[3-(5-Methyl-1H-imidazol-2-yl)benzyl]-1-(1-methyl-1H-pyrazol-4-yl)pyridazin-4(1H)-one]"
10,100 to 1000,"O=c1ccn(-c2cc(F)cc(F)c2)nc1Cc1cccc(-c2ncc(O)cn2)c1 [compound 189, 1-(3,5-difluorophenyl)-3-[3-(5-hydroxypyrimidin-2-yl)benzyl]pyridazin-4(1H)-one]"
11,< 100,"CCOCCNc1cnc(-c2cccc(Cc3nn(-c4cnn(C)c4)ccc3=O)c2)nc1 [Example 454, 3-(3-{5-[(2-ethoxyethyl)amino]pyrimidin-2-yl}benzyl)-1-(1-methyl-1H-pyrazol-4-yl)pyridazin-4(1H)-one]"
12,< 100,"Cn1cc(-n2ccc(=O)c(Cc3cccc(-c4ncc(CO)cn4)c3)n2)cn1 [Example 190, 3-{3-[5-(Hydroxymethyl)pyrimidin-2-yl]benzyl}-1-(1-methyl-1H-pyrazol-4-yl)pyridazin-4(1H)-one]"
13,< 100,"Cn1cc(-n2ccc(=O)c(Cc3cccc(-c4ncc(/C=C/C(C)(C)O)cn4)c3)n2)cn1 [Example 401, 3-(3-{5-[(1E)-3-hydroxy-3-methylbut-1-en-1-yl]pyrimidin-2-yl}benzyl)-1-(1-methyl-1H-pyrazol-4-yl)pyridazin-4(1H)-one]"
14,< 100,"CCCCc1nc(-c2cccc(Cc3nn(-c4cnn(C)c4)ccc3=O)c2)ncc1OCC [Example 176, 3-[3-(4-butyl-5-ethoxypyrimidin-2-yl)benzyl]-1-(1-methyl-1H-pyrazol-4-yl)pyridazin-4(1H)-one]"
15,< 100,"CCn1cc(-n2ccc(=O)c(Cc3cccc(-c4ncc(COC)cn4)c3)n2)cn1 [Example 163, 1-(1-ethyl-1H-pyrazol-4-yl)-3-{3-[5-(methoxymethyl)pyrimidin-2-yl]benzyl}pyridazin-4(1H)-one]"
16,100 to 1000,"Cn1cc(-n2ccc(=O)c(Cc3ccc4[nH]ncc4c3)n2)cn1 [Example 184, 3-(1H-Indazol-5-ylmethyl)-1-(1-methyl-1H-pyrazol-4-yl)pyridazin-4(1H)-one]"
17,100 to 1000,"Cn1cc(-n2ccc(=O)c(Cc3cccc(-c4ncc(NC(=O)CC5CCCO5)cn4)c3)n2)cn1 (racemic) [Example 464, rac-N-[2-(3-{[1-(1-methyl-1H-pyrazol-4-yl)-4-oxo-1,4-dihydro-pyridazin-3-yl]methyl}phenyl)pyrimidin-5-yl]-2-(tetrahydro-furan-2-yl)acetamide]"
18,1000 to 3000,"COCCOc1cnc(-c2cccc(C(CCO)c3nn(-c4cnn(C)c4)ccc3=O)c2)nc1 (racemic) [Example 253, rac-3-(3-Hydroxy-1-{3-[5-(2-methoxyethoxy)pyrimidin-2-yl]phenyl}propyl)-1-(1-methyl-1H-pyrazol-4-yl)pyridazin-4(1H)-one]"

# More lines, now with the values behind:
row,SMILES,IC50 [nM]
1,"CCOC(=O)Nc1cccc(Cc2nn(-c3cnn(CC(C)C)c3)ccc2=O)c1 [Example 92, ethyl [3-({1-[1-(2-methylpropyl)-1H-pyrazol-4-yl]-4-oxo-1,4-dihydropyridazin-3-yl}methyl)phenyl]carbamate]",100 to 1000
2,"CCCOC(=O)Nc1cccc(Cc2nn(-c3cc(F)cc(F)c3)ccc2=O)c1 [Example 590, propyl (3-{[1-(3,5-difluorophenyl)-4-oxo-1,4-dihydropyridazin-3-yl]methyl}phenyl)carbamate]",< 100
3,"CCOc1cnc(-c2cccc(Cc3nn(-c4ccc(C(=O)NCCO)c(F)c4)ccc3=O)c2)nc1 [Example 722, 4-{3-[3-(5-Ethoxypyrimidin-2-yl)benzyl]-4-oxopyridazin-1(4H)-yl}-2-fluoro-N-(2-hydroxyethyl)benzamide]",< 100
4,"CCCOC(=O)Nc1cccc(Cc2nn(-c3cnn(CC4CCOCC4)c3)ccc2=O)c1 [Example 101, propyl [3-({4-oxo-1-[1-(tetrahydro-2H-pyran-4-ylmethyl)-1H-pyrazol-4-yl]-1,4-dihydropyridazin-3-yl}methyl)phenyl]carbamate]",100 to 1000
5,"CCOc1cnc(-c2cccc(Cc3nn(-c4cccc(C#N)c4)ccc3=O)c2)nc1 [Example 72, 3-[3-[3-(5-ethoxypyrimidin-2-yl)benzyl]-4-oxopyridazin-1(4H)-yl]benzonitrile]",< 100
6,"O=C(Nc1cccc(Cc2nn(-c3cc(F)cc(F)c3)ccc2=O)c1)OCC1CCOCC1 [Example 606, tetrahydro-2H-pyran-4-ylmethyl (3-{[1-(3,5-difluorophenyl)-4-oxo-1,4-dihydropyridazin-3-yl]methyl}phenyl)carbamate]",< 100
7,"Cn1cc(-n2ccc(=O)c(Cc3cccc(NC(=O)OCC4CCCC4)c3)n2)cn1 [Example 539, cyclopentylmethyl (3-{[1-(1-methyl-1H-pyrazol-4-yl)-4-oxo-1,4-dihydropyridazin-3-yl]methyl}phenyl)carbamate]",< 100
8,"CC(C)COC(=O)Nc1cccc(Cc2nn(-c3cnn(CCCC(=O)N4CCOCC4)c3)ccc2=O)c1 [Example 698, 2-methylpropyl [3-({1-[1-(4-morpholin-4-yl-4-oxobutyl)-1H-pyrazol-4-yl]-4-foundoxo-1,4-dihydropyridazin-3-yl}methyl)phenyl] carbamate]",< 100
9,"O=c1ccn(-c2ccc(F)c(F)c2)nc1Cc1cccc(-c2ncc(OC3CCOC3)cn2)c1 (single isomer, unassigned) [Example 349, 1-(3,4-difluorophenyl)-3-(3-{5-[(3R or S)-tetrahydrofuran-3-yloxy]pyrimidin-2-yl}benzyl)pyridazin-4(1H)-one]",< 100
10,"COCCOc1cnc(-c2cccc(Cc3nn(-c4cccc(C#N)c4)ccc3=O)c2)nc1 [Example 319, 3-[3-{3-[5-(2-methoxyethoxy)pyrimidin-2-yl]benzyl}-4-oxopyridazin-1(4H)-yl]benzonitrile]",< 100
11,"CCn1cc(-n2ccc(=O)c(Cc3cccc(NC(=O)OCCN4CCOCC4)c3)n2)cn1 [Example 115, 2-morpholin-4-ylethyl (3-{[1-(1-ethyl-1H-pyrazol-4-yl)-4-oxo-1,4-dihydropyridazin-3-yl]methyl}phenyl)carbamate]",< 100
12,"CCn1cc(-n2ccc(=O)c(C(C)c3cccc(-c4ncn(CC)n4)c3)n2)cn1 (single isomer, unassigned) [Example 686, 1-(1-ethyl-1H-pyrazol-4-yl)-3-{(1S or R)-1-[3-(1-ethyl-1H-1,2,4-triazol-3-yl)phenyl]ethyl} pyridazin-4(1H)-one]",100 to 1000
13,"COC(=O)Nc1cccc(Cc2nn(-c3cnn(C)c3)ccc2=O)c1 [Example 497, Methyl(3-{[1-(1-methyl-1H-pyrazol-4-yl)-4-oxo-1,4-dihydropyridazin-3-yl]methyl}phenyl)carbamate]",< 100
14,"Cn1cc(-n2ccc(=O)c(Cc3cccc(NC(=O)OC[C@@H]4CCCN4)c3)n2)cn1 [Example 616, (2S)-pyrrolidin-2-ylmethyl (3-{[1-(1-methyl-1H-pyrazol-4-yl)-4-oxo-1,4-dihydropyridazin-3-yl]methyl}phenyl)carbamate]",100 to 1000
15,"CCn1cc(-n2ccc(=O)c(C(C)c3cccc(-c4ncc(O)cn4)c3)n2)cn1 (single isomer, unassigned) [Example 257, 1-(1-ethyl-1H-pyrazol-4-yl)-3-{(1S or R)-1-[3-(5-hydroxypyrimidin-2-yl)phenyl]ethyl}pyridazin-4(1H)-one]",1000 to 3000
16,"CCN(CC)CCCOC(=O)Nc1cccc(Cc2nn(-c3cnn(C)c3)ccc2=O)c1 [Example 571, 3-(diethylamino)propyl (3-{[1-(1-methyl-1H-pyrazol-4-yl)-4-oxo-1,4-dihydropyridazin-3-yl]methyl}phenyl)carbamate]",< 100
17,"CCCn1cnc(-c2cccc(Cc3nn(-c4cccc(C#N)c4)ccc3=O)c2)n1 [Example 85, 3-{4-oxo-3-[3-(1-propyl-1H-1,2,4-triazol-3-yl)benzyl]pyridazin-1(4H)-yl}benzonitrile]",< 100
